The term IC50 denotes the concentration that inhibits the measured activity by half.

Like-named read-outs stand apart in the source and are kept apart here.

From patent US8674113B2, “Compounds” (Boehringer Ingelheim International GmbH, priority 2010, dated 2014) come the findings set out here.

In one assay the target is mPGES-1 in A549 cells (Homo sapiens (Human), UniProt O14684). In words: A549 cell-based assay (PGE2 formation, 50% human serum). In outline: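 A549 cells in F-12K with 50% human serum were stimulated 20-24 h with 5 ng/ml IL-1β and 10 nM arachidonic acid in presence of compound or vehicle. PGE2 in the cell-free medium was measured by HTRF, normalised to vehicle (100%). IC50 from 6-8 point titrations.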

Assay [1] deals with recombinant human mPGES-1 (Homo sapiens (Human), UniProt O14684). In words: mPGES-1 enzyme assay (HTRF detection of PGE2). The class given is biochemical. In outline: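 Microsomes from E. coli expressing recombinant human mPGES-1 (~0.5 μg protein/well) in 0.1 M phosphate pH 7.4 with 2.5 mM GSH, pre-incubated with compound 25 min at room temperature. PGH2 (2 μM final) added, reaction stopped with FeCl2 after 60 s; PGE2 quantified by HTRF (665/620 ratio) against a calibration curve, IC50 by nonlinear regression after background subtraction.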

The mark [2] stands for this setting: IL-1β 5 ng/ml, 10 nM arachidonic acid, 20-24 h, read-out: mPGES-1 inhibitory effect IC50 in the cell assay.
Setting [3] is: recombinant human mPGES-1 microsomes, PGH2 2 μM, 60 seconds, read-out: mPGES-1 inhibitory effect IC50 in the enzyme assay.

Sequence of mPGES-1 in A549 cells (O14684 whole entry): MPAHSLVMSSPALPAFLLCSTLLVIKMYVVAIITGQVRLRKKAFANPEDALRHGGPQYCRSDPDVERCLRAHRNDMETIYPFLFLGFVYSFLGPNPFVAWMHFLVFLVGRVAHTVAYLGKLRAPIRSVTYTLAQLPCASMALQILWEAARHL
Sequence of recombinant human mPGES-1 (O14684 whole entry): as above

For `Cn1c(Nc2c(Cl)ccc(CNC(=O)C(C)(C)C)c2Cl)nc2cc(C(=O)N[C@H]3CC[C@H](C(F)(F)F)CC3)c(N3CCn4ncnc4C3)cc21` [Example 133], the IC50 on mPGES-1 in A549 cells (setting [2]) is 10 nM; in assay [1] (setting [3]) it was 3 nM.
As to `COC(C)CN(C)c1cc2c(cc1C(=O)N[C@H]1CC[C@H](C(F)(F)F)CC1)nc(Nc1c(Cl)ccc(CNC(=O)C(C)(C)C)c1Cl)n2C` (some centres unmarked) [Example 104], the figures for the IC50 (on mPGES-1 in A549 cells (setting [2]); in assay [1] (setting [3])) were 1 nM and 2 nM, respectively.
For `Cn1c(Nc2c(Cl)ccc(CNC(=O)C(C)(C)C)c2Cl)nc2cc(C(=O)N[C@H](c3ccccc3)C(F)(F)F)c(N3CCC(F)(F)C3)cc21` [Example 41] the same measures were 7 nM and 2 nM.
Taken in the same sequence, the figures for `Cn1c(Nc2c(Cl)ccc(CNC(=O)C(C)(C)C)c2Cl)nc2cc(C(=O)N[C@H]3CC[C@H](C(F)(F)F)CC3)c(N3CC(OC(F)F)C3)cc21` [Example 99] were 5 nM and 1 nM.
In the case of `Cn1c(Nc2c(Cl)ccc(CNC(=O)C(C)(C)C)c2Cl)nc2cc(C(=O)N[C@H]3CC[C@H](C(F)(F)F)CC3)c(N3CC(O)C3)cc21` [Example 87], the IC50 came out at 8 nM on mPGES-1 in A549 cells (setting [2]) and 2 nM in assay [1] (setting [3]).
For `Cn1c(Nc2c(Cl)ccc(CNC(=O)C(C)(C)C)c2Cl)nc2cc(C(=O)Nc3ccc(F)c(Cl)c3)c(N3CCC(F)CC3)cc21` [Example 1, N-(4-Fluoro-3-chloro-phenyl)-2-{2,6-dichloro-3-[(2,2-dimethyl-propionylamino)-methyl]-phenylamino}-6-(4-fluoro-piperidinyl)-1-methyl-1H-benzimidazole-5-carboxylic acid amide] the same measures were 1 nM and 2 nM.
For `Cn1c(Nc2c(Cl)ccc(CNC(=O)C(C)(C)C)c2Cl)nc2cc(C(=O)N[C@H]3CC[C@H](C(F)(F)F)CC3)c(N3CC4(CCC4)C3)cc21` [Example 94] the same measures were 6 nM and 4 nM.
As for `Cn1c(Nc2c(Cl)ccc(CNC(=O)C(C)(C)C)c2Cl)nc2cc(C(=O)Nc3ccc(F)c(Cl)c3)c(NC3CC(F)(F)C3)cc21` [Example 15], the concentration for half-maximal inhibition (IC50) at mPGES-1 in A549 cells (setting [2]) came out at 23 nM; in assay [1] (setting [3]), 4 nM.
Consider `Cn1c(Nc2c(Cl)ccc(CNC(=O)C(C)(C)F)c2Cl)nc2cc(C(=O)N[C@H]3CC[C@@H](C(F)(F)F)CC3)c(N3CCC(C(F)(F)F)CC3)cc21` [Example 253], for which the IC50 at mPGES-1 in A549 cells (setting [2]) was 2.4 nM; in assay [1] (setting [3]), 5.7 nM.
Taken in the same sequence, the figures for `Cn1c(Nc2c(Cl)ccc(CNC(=O)C(C)(C)C(F)(F)F)c2Cl)nc2cc(C(=O)N[C@H]3CC[C@@H](C(F)(F)F)CC3)c(N3CCC(C(F)(F)F)CC3)cc21` [Example 254] were 1 nM and 3.1 nM.
Consider `CN(c1ccc(F)c(Cl)c1)c1cc2c(cc1C(=O)NCC(F)(F)F)nc(Nc1c(Cl)ccc(CNC(=O)C(C)(C)C)c1Cl)n2C` [Example 31], for which the IC50 at mPGES-1 in A549 cells (setting [2]) came to 33 nM; in assay [1] (setting [3]), 4 nM.
For `Cn1c(Nc2c(Cl)ccc(CNC(=O)C(C)(C)C)c2Cl)nc2cc(C(=O)Nc3cc(C(C)(C)CO)no3)c(N3CCC(C(F)(F)F)CC3)cc21` [Example 160], the half-maximal inhibitory concentration (IC50) on mPGES-1 in A549 cells (setting [2]) was 3 nM; in assay [1] (setting [3]), 4 nM.
For the compound `Cn1c(Nc2c(Cl)ccc(CNC(=O)C(C)(C)C)c2Cl)nc2cc(C(=O)NC(c3ccccn3)C(F)(F)F)c(N3CCC(F)(F)C3)cc21` (centres unmarked) [Example 38], the 50% inhibitory concentration (IC50) on mPGES-1 in A549 cells (setting [2]) came out at 6 nM; in assay [1] (setting [3]), 4 nM.
For `Cn1c(Nc2c(Cl)ccc(CNC(=O)C(C)(C)C)c2Cl)nc2cc(C(=O)NC3CCC(F)(F)CC3)c(N3CCC(C(F)(F)F)CC3)cc21` [Example 60] the same measures were 1 nM and 1 nM.
For `CN(CC(N)=O)c1cc2c(cc1C(=O)N[C@H]1CC[C@H](C(F)(F)F)CC1)nc(Nc1c(Cl)ccc(CNC(=O)C(C)(C)F)c1Cl)n2C` [Example 111] the same measures were 22 nM and 2 nM.
Taken in the same sequence, the figures for `CC(C)(C)C(=O)NCc1ccc(F)c(Nc2nc3cc(C(=O)N[C@H]4CC[C@H](C(F)(F)F)CC4)c(N4CCC(F)CC4)cc3[nH]2)c1F` [Example 5, N-(trans-4-Trifluoromethyl-cyclohexyl)-2-{2,6-difluoro-3[(2,2-dimethyl-propionylamino)-methyl]-phenylamino}-6-[4-fluoro-piperidinyl]-1H-benzimidazole-5-carboxylic acid amide] were 39 nM and 2 nM.
As for `CC(C)(C)C(=O)NCc1ccc(Cl)c(Nc2nc3cc(C(=O)NCC(F)(F)C(F)(F)F)c(N4CCC(C(F)(F)F)CC4)cc3n2CC(F)F)c1Cl` [Example 76], the IC50 (at mPGES-1 in A549 cells (setting [2]); in assay [1] (setting [3])) was 1 nM each time.
As for `CN(c1cc2c(cc1C(=O)N[C@H]1CC[C@H](C(F)(F)F)CC1)nc(Nc1c(Cl)ccc(CNC(=O)C(C)(C)C)c1Cl)n2C)C1CCC1` [Example 91], the IC50 on mPGES-1 in A549 cells (setting [2]) is under 1 nM; in assay [1] (setting [3]), 4 nM.
Taken in the same sequence, the figures for `Cn1c(Nc2c(Cl)ccc(CNC(=O)[C@](C)(O)C(F)(F)F)c2Cl)nc2cc(C(=O)N[C@H]3CC[C@H](C(F)(F)F)CC3)c(N3CCC(C(F)(F)F)CC3)cc21` [Example 252] were 1.4 nM and 2.9 nM.
For `Cn1c(Nc2c(Cl)ccc(CNC(=O)C(C)(C)F)c2Cl)nc2cc(C(=O)Nc3ccc(F)c(Cl)c3)c(N3CCC(C(F)(F)F)CC3)cc21` [Example 231, N-(3-Chloro-4-fluoro-phenyl)-2-{2,6-dichloro-3-[(2-fluoro-2-methyl-propionylamino)-methyl]-phenylamino}-6-[4-trifluoromethyl-piperidinyl]-1-methyl-1H-benzimidazole-5-carboxylic acid amide] the same measures were 1.1 nM and 2 nM.
Turning to `Cn1c(Nc2c(Cl)ccc(CNC(=O)C(C)(C)C)c2Cl)nc2cc(C(=O)N[C@H]3CC[C@H](C(F)(F)F)CC3)c(N3C[C@@H]4C[C@H]3CO4)cc21` [Example 129], the concentration for half-maximal inhibition (IC50) was 5 nM at mPGES-1 in A549 cells (setting [2]) and 3 nM in assay [1] (setting [3]).
Take `Cn1c(Nc2cc(CNC(=O)C(C)(C)C)ccc2Cl)nc2cc(C(=O)NCC3CC3)c(OCC(F)F)cc21` [[drawing 52] of WO 2010/100249, reference compound]: the IC50 at mPGES-1 in A549 cells (Table C comparison of selected benzimidazoles, read-out: Cell IC50) is over 200 nM; in assay [1] (Table C comparison of selected benzimidazoles, read-out: Enzym IC50) it was 2 nM.
For `Cn1c(Nc2c(Cl)ccc(CNC(=O)C(C)(C)C)c2Cl)nc2cc(C(=O)N[C@H]3CC[C@@H](C(F)(F)F)CC3)c(N3CCC(C(F)(F)F)CC3)cc21` [Example 61], the IC50 was under 1 nM on mPGES-1 in A549 cells (setting [2]) and 2 nM in assay [1] (setting [3]).
Taken in the same sequence, the figures for `Cc1c(N2CC3CC3C2)c(C(=O)N[C@H]2CC[C@H](C(F)(F)F)CC2)cc2nc(Nc3c(Cl)ccc(CNC(=O)C(C)(C)C)c3Cl)n(C)c12` (stereo partly drawn) [Example 144, N-(trans-4-Trifluoromethyl-cyclohexyl)-2-{2,6-dichloro-3-[(2,2-dimethyl-propionylamino)-methyl]-phenylamino}-6-[3-aza-bicyclo[3.1.0]hex-3-yl]-1,7-dimethyl-1H-benzimidazole-5-carboxylic acid amide] were 1 nM and 5 nM.
Taken in the same sequence, the figures for `Cn1c(Nc2c(Cl)ccc(CNC(=O)C(C)(C)F)c2Cl)nc2cc(C(=O)NCCC(F)(F)F)c(N3CCCC(C(F)(F)F)C3)cc21` (centres unmarked) [Example 150] were 2 nM and 2 nM.
For `Cn1c(Nc2c(Cl)ccc(CNC(=O)C(C)(C)C)c2Cl)nc2cc(C(=O)NCC(F)(F)C(F)(F)F)c(N3CCC(C(F)(F)F)CC3)cc21` [Example 53], the IC50 came to 1 nM on mPGES-1 in A549 cells (setting [2]) and 2 nM in assay [1] (setting [3]).
For `Cn1c(Nc2c(Cl)ccc(CNC(=O)C(C)(C)C)c2Cl)nc2cc(C(=O)N[C@H]3CC[C@H](C(F)(F)F)CC3)c(N3CC4COCC4C3)cc21` (some centres unmarked) [Example 102] the same measures were 1.5 nM and 2 nM.
For `Cn1c(Nc2c(Cl)ccc(CNC(=O)C(C)(C)C)c2Cl)nc2cc(C(=O)NCCCC(F)(F)F)c(N3CCC(F)(F)C3)cc21` [Example 46] the same measures were 7 nM and 3 nM.
For `Cn1c(Nc2c(Cl)ccc(CNC(=O)C(C)(C)C)c2Cl)nc2cc(C(=O)Nc3ccc(OC(F)(F)F)cc3)c(N3CC[C@@H](F)C3)cc21` [Example 241] the same measures were under 1 nM and 3.5 nM.
Regarding `CN(c1cc2c(cc1C(=O)NCC(F)(F)F)nc(Nc1c(Cl)ccc(CNC(=O)C(C)(C)C)c1Cl)n2C)C1CC1` [Example 23], the results for the IC50 (at mPGES-1 in A549 cells (setting [2]); in assay [1] (setting [3])) were 1 nM and 4 nM, respectively.
For `Cn1c(Nc2c(Cl)ccc(CNC(=O)C(C)(C)C(F)(F)F)c2Cl)nc2cc(C(=O)Nc3ccc(OC(F)(F)F)cc3)c(N3CCC(C(F)(F)F)CC3)cc21` [Example 238] the same measures were 2 nM and 2.2 nM.
`Cn1c(Nc2c(Cl)ccc(CNC(=O)C(C)(C)C)c2Cl)nc2cc(C(=O)N[C@H]3CC[C@H](C(F)(F)F)CC3)c(N3CCn4cncc4C3)cc21` [Example 24]: the half-maximal inhibitory concentration (IC50) at mPGES-1 in A549 cells (setting [2]) worked out at 44 nM; in assay [1] (setting [3]), 5 nM.
Taken in the same sequence, the figures for `Cn1c(Nc2c(Cl)ccc(CNC(=O)C(C)(C)C(F)(F)F)c2Cl)nc2cc(C(=O)Nc3ccc(OC(F)(F)F)cc3)c(N3CC[C@@H](F)C3)cc21` [Example 240] were 2 nM and 4.9 nM.
Taken in the same sequence, the figures for `Cn1c(Nc2c(Cl)ccc(CNC(=O)C(C)(C)C)c2F)nc2cc(C(=O)Nc3ccc(OC(F)(F)F)cc3)c(N3CC[C@@H](F)C3)cc21` [Example 138] were 3 nM and 2 nM.
